Laboratory results taken from US5221682A, “Heteroarylamino- and heteroaryloxypyridinamines and related compounds” (Hoechst-Roussel Pharmaceuticals Incorporated, priority 1991, dated 1993).
pIC50: −log10 of the molar value.

Experiments:
[1] = system: ear edema induced by topical application of TPA (phorbol 12-myristate acetate); assay: TPA-Induced Ear Edema (TPAEE); details: for change in vivo at 10 µg/ear: Mus musculus, 5 h, read-out: TPAEE
Experimental: Female Swiss Webster mice topically received TPA (10 μg/ear) on the right ear and vehicle on the left ear. The test compound (10 μg/ear) was applied to both ears. After five hours, the animals were sacrificed and an ear punch (4 mm) was taken from each ear. The difference in right and left ear punch weights for each animal was determined to assess activity.

porcine pancreatic PLA2 = molecular target: T1, porcine pancreatic PLA2 (Sus scrofa, UniProt P00592); assay: In Vitro Phospholipase A2 Assay (PLA2); type: biochemical; details: 0.01M; read-out: PLA2 (difference vs. control)
T1 construct: from tissue; host or cells: porcine pancreas
T1 sequence (P00592 23-146): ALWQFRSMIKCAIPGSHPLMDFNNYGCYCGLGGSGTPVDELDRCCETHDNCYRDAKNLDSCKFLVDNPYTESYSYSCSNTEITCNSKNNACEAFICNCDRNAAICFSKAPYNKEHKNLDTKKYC
Experimental: In Vitro Phospholipase A2 Assay (PLA2)
The ability of a compound to modulate PLA2 activity (cleavage of ^14 C-dipalmitoyl phosphotidylcholine at the 2-position to ^14 C-palmitic acid) was quantitated in this assay. The reaction mixture contained Tris buffer (25 mM), pH 8.0, calcium chloride (2.0 mM), bovine serum albumin (0.5 mg), dipalmitoyl phosphotidylcholine (8×10^-5M), (^14 C-palmitoyl)dipalmitoyl phosphotidylcholine (6×10^3cpm), porcine pancreatic PLA2 (3.2 units) and the test compound. The reaction was run at 37° C. in a shaking incubator. The reaction was quenched and an internal standard was added in order to determine sample recovery. The samples were loaded onto C18 columns, eluted with ethanol, and the radioactivity was then measured. […] See Feyen, J. H. M., et al., Journal of Chromatography 259 (1983), pp. 338-340.

[2] = system: naja naja (snake venom) phospholipase A2 -induced paw edema; assay: Phospholipase A2-induced Paw Edema (PIPE); type: in vivo, male Wistar rats; details: for PIPE, difference in edema vs. control: 0.1M, rat, subplantar injection, two hours
Experimental: Phospholipase A2 -induced Paw Edema (PIPE)
The ability of compounds to prevent naja naja (snake venom) phospholipase A2 -induced paw edema in male Wistar rats (100-125 g) was measured. PLA2 (3 units/paw) alone or with 0.1M of the test compound was injected in the subplantar region of the rat left hindpaw. Immediately subsequent to the injection and at two hours post administration the paw was immersed in a mercury bath, and paw displacement was measured on a recorder via a transducer. […] See Giessler, A. J. et al., Agents and Actions, Vol. 10, Trends in Inflammation Research (1981), p. 195.

[3] = system: mouse ear edema induced by topical application of arachidonic acid; assay: Arachidonic Acid-Induced Ear Edema (AAEE); type: in vivo, Female Swiss Webster mice; details: for AAEE: 1 mg (1.0 mg/ear)
Experimental: Arachidonic Acid-Induced Ear Edema (AAEE)
Female Swiss Webster mice topically received vehicle or test compound (1.0 mg/ear) on both ears (10 μl on outer and inner ears). After 30 minutes, the right ear of all groups received arachidonic acid (4 mg/ear) and the left ear received vehicle alone. […] See Young, J. M. et al., Invest. Dermatol., 80, (1983), pp 48-52.

epidermal DNA synthesis = assay: Epidermal DNA Synthesis (in vivo DNA); set-up: species or system HRS/J hairless mice; details: topical, hairless mice; for in vivo DNA: 2.5 mg
Experimental: Epidermal DNA Synthesis (in vivo DNA)
The influence of compounds on the proliferation of skin was assessed by determining inhibition or stimulation of DNA synthesis. HRS/J hairless mice received topical application of a compound or vehicle alone on the dorsal aspect. After 24 hours, ^3 H-thymidine (25 μCi) was administered by intraperitonal injection. After an additional hour, animals were sacrificed and the dorsal skin was removed. The epidermal layer was peeled from the dermis by heat separation. Unincorporated ^3 H-thymidine was removed by washing successively with trichloroacetic acid and ethanol. Samples were centrifuged at 2,000 rpm and supernatants discarded. The epidermal sheets were then extracted with warm trichloroacetic acid and the supernatants analyzed for ^3 H-thymidine incorporation by scintillation counting and total DNA by a standard colorimetric assay. […] See Lowe, N. J., et al., Arch. Dermatol., 117 (1981), pp. 394-8; and Burton, K., Biochem. J. 62 (1956), pp. 315-22.

[4] = system: cultured human epidermal keratinocytes; assay: Culture Human Keratinocyte DNA Synthesis (in vitro DNA); type: cell-based
Experimental: Culture Human Keratinocyte DNA Synthesis (in vitro DNA)
The effect of a compound on the proliferation of cultured human epidermal keratinocytes was measured. After incubation with a test compound for 24 hours, the cultures were pulse-labelled for three hours with 5 μCi of ^3 H-thymidine. The cultures were extracted for DNA successively with trichloroacetic acid and ethanol, and thereafter dissolved with NaOH. The radioactive incorporation of ^3 H-thymidine into DNA was determined.

Compound	change in vivo at 10 µg/ear [1] [%]	inhibition at 10000 µM (porcine pancreatic PLA2) [%]	PIPE, difference in edema vs. control [2] [%]	AAEE [3] [%]	further results
O=[N+]([O-])c1cc[n+]([O-])cc1NC1CCc2ccccc21 (stereo not drawn) [N-(Indan-1-yl)-4-nitro-3-pyridinamine-1-oxide]	-65	–	–	–	–
O=[N+]([O-])c1cc[n+]([O-])cc1Nc1ccc2[nH]ccc2c1 [N-(4-Nitro-3-pyridinyl)-1H-indol-5-amine, N^5-oxide]	–	71	–	–	–
Nc1cnccc1Oc1ccc2[nH]ccc2c1 [4-[(1H-Indol-5-yl)-oxy]-3-pyridinamine, 4-[(1H-Indol-5-yl)oxy]-3-pyridinamine]	–	–	-52	–	–
O=[N+]([O-])c1cc[n+]([O-])cc1Nc1cccc2cc[nH]c12 [N-(4-Nitro-3-pyridinyl)-1H-indol-7-amine, N^7-oxide]	-40	–	–	–	–
Nc1ccncc1Oc1ccc2[nH]ccc2c1 [3-[(1H-Indol-5-yl)-oxy]-4-pyridinamine, 3-[(1H-Indol-5-yl)oxy]-4-pyridinamine]	-42	34	-62	-50	in vivo DNA (epidermal DNA synthesis): -37%
Cn1ccc2cc(Nc3cnccc3N)ccc21 [N-(4-Amino-3-pyridinyl)-1-methyl-1H-indol-5-amine]	–	62	-42	–	–
Nc1cnccc1Nc1ccc2[nH]ccc2c1 [N-(3-Amino-4-pyridinyl)-1H-indol-5-amine]	–	82	–	-37	–
COc1ccc2c(c1)c(CC(=O)O)c(C)n2C(=O)c1ccc(Cl)cc1 [indomethacin, reference compound]	–	–	–	–	pIC50 ([4]; read-out: IC50 (Standard)): 4.42; ED50 (Standard) ([3]; AAEE standard): 1.5 mg/ear; ED50 (Standard) (epidermal DNA synthesis; in vivo DNA standard): 1.75 mg/animal
Cn1ccc2cc(Nc3c[n+]([O-])ccc3[N+](=O)[O-])ccc21 [1-Methyl-N-(4-nitro-3-pyridinyl)-1H-indol-5-amine, N^5-oxide]	-30	66	-41	–	–
O=[N+]([O-])c1cnccc1Nc1ccc2[nH]ccc2c1 [N-(3-Nitro-4-pyridinyl)-1H-indol-5-amine]	–	36	–	–	–
Nc1ccncc1Nc1ccc2cn[nH]c2c1 [N-(4-Amino-3-pyridinyl)-1H-indazol-6-amine]	–	57	–	-35	–
CC(=O)N1CCc2cc(Nc3cnccc3N)ccc21 [1-Acetyl-N-(4-amino-3-pyridinyl)-2,3-dihydro-1H-indol-5-amine]	–	–	–	-36	–
Nc1ccncc1Nc1ccc2[nH]ccc2c1 [N-(4-Amino-3-pyridinyl)-1H-indol-5-amine]	-85	87	-67	-41	inhibition at 50 µM ([4]; 50 μM, 24 hours): 81%; in vivo DNA (epidermal DNA synthesis): -27%
Nc1cc[n+]([O-])cc1Nc1cccc2cc[nH]c12 [N-(4-Amino-3-pyridinyl)-1H-indol-7-amine, N^7-oxide]	-38	–	-45	–	–
O=[N+]([O-])c1cc[n+]([O-])cc1Nc1ccc2[nH]ncc2c1 [N-(4-Nitro-3-pyridinyl)-1H-indazol-5-amine, N^5-oxide]	-78	–	–	–	–
Nc1ccncc1Nc1ccc2c(c1)CCC2 [N^3-(Indan-5-yl)-3,4-pyridinediamine]	-75	–	–	-49	–
C[C@]12CCC(=O)C=C1CC[C@@H]1[C@@H]2[C@@H](O)C[C@@]2(C)[C@H]1CC[C@]2(O)C(=O)CO [hydrocortisone, reference compound]	–	–	–	–	ED50 (Standard) ([2]; PIPE standard, rat paw): 0.46 M; ED50 (Standard) ([1]; TPAEE standard, mouse): 47 μg/ear
O=[N+]([O-])c1cc[n+]([O-])cc1Nc1ccc2cn[nH]c2c1 [N-(4-Nitro-3-pyridinyl)-1H-indazol-6-amine, N^6-oxide]	–	83	–	–	–
O=[N+]([O-])c1cc[n+]([O-])cc1Nc1ccc2c(c1)CCC2 [N-(Indan-5-yl)-4-nitro-3-pyridinamine-1-oxide]	-48	–	–	-44	–
